From patent publication US20060263453A1, “Methods and compositions for modulating glutamate dehydrogenase” (priority 2004, published 2006)

Assays:
GDH = molecular target: T1, GDH (Bos taurus, UniProt P00366); experiment: steady state kinetic analysis of reductive amination, NADH or 2-oxoglutarate varied (Lineweaver-Burke plots); type: biochemical, bovine; design: Y-intercept (Lineweaver-Burke): unit not given beside the values
T1 construct: purchased Sigma Aldrich Chemical Company (St. Louis, Mo.)
Method: (§1) First, aliquots of GDH were extensively dialyzed against 0.1M sodium phosphate buffer, pH 7.0, which contained 1 mM ethylenediaminetetraacetic acid (EDTA). The enzyme concentrations were adjusted to 1 mg/ml and the amount of enzyme added to the reaction mixture, for kinetic analysis, was adjusted to yield optimal steady state velocity measurements. All solutions were made immediately prior to use. Enzyme assays were performed by monitoring reduced coenzyme absorbance at 340 nm using a Shimadzu UV-1601 spectrophotometer. The reductive amination reactions were performed in 3 mL volumes at pH 7.0 in the presence of 0.1 mM nicotinamide adenine dinucleotide (NADH), 50 mM NH4Cl, and 5 mM 2-oxoglutarate. The rate of NADH oxidation was calculated using an extinction coefficient of 6.22 mM^−1 cm^−1.
In this Example, EGCG was added to a reaction (at a final concentration of 0.0, 0.3, or 0.6 μM), along with various concentrations of NADH or 2-oxoglutarate, to further ascertain how EGCG inhibits the reductive amination reaction catalyzed by GDH. Such kinetic analysis was carried out as described above in Example 1.

rat islets [1] = experiment: glucose stimulated insulin secretion (GSIS), short run-down (50 minutes), glucose ramp; type: cell-based; conditions: 20 μM, FIGS. 8A and 8B
Method: In this Example, the effect of EGCG on glucose stimulated insulin secretion (GSIS) was examined. Isolated rat islets were cultured with 20 mM glucose (FIG. 8A) and 10 mM glucose (FIG. 8B) for 3 days, then perifused in the absence of glucose for 50 minutes and in the presence of 0 μM EGCG; 20 μM EGCG; or 20 μM EGC. Next, the islets were stimulated by a glucose ramp (0 to 25 mM, 0.5 mM/minute). Finally, the islets were exposed to 30 mM KCl. Insulin levels were measured every minute by radioimmunoassay. The results shown in FIG. 8A are presented as means±S.E. for 100 islets from 3 separate experiments (and means±S.E. for 100 islets from 1 experiment for FIG. 8B).

rat islets [2] = experiment: glucose stimulated insulin secretion in 120 minute run-down islets; type: cell-based
Method: Under brief “run-down” conditions used for the above GSIS analysis, where glucose was removed from the cells for only […], the levels of high-energy metabolites (i.e., GTP and ATP) have not been depleted and these effectively shut down GDH activity. This, in turn, eliminated any effect GDH might have on insulin secretion. Therefore, the effects of EGCG were also tested on […] that had been “run-down” for a longer period of time (120 minutes) prior to glucose stimulation (FIG. 11). Specifically, isolated rat islets were cultured with 10 mM glucose for 3 days and then perifused in the absence of glucose and in the presence of 0 or 20 μM EGCG (or 20 μM EGC) for “run-down” periods of 120 minutes prior to stimulation with a glucose ramp (0 to 25 mM, 0.5 mM/minute). Finally, islets were exposed to 30 mM KCl. The insert highlighted the insulin secretion from time=120 minutes to 140 minutes.

Bovine GDH (bGDH) = molecular target: T2, Bovine GDH (bGDH) (Bos taurus, UniProt P00366); experiment: reductive amination reaction catalyzed by bovine GDH (NADH absorbance at 340 nm); type: biochemical
T2 construct: purchased Sigma Aldrich Chemical Company (St. Louis, Mo.)
Method: In this Example, the effects of epigallocatechin gallate (EGCG), epigallocatechin (EGC), epicatechin gallate (ECG), and epicatechin (EC) from Camellia sinensis on GDH activity were tested. Bovine GDH (bGDH) was used in this Example, which was obtained as an aqueous (NH4)2SO4 suspension from Sigma Aldrich Chemical Company (St. Louis, Mo.).
as §1

[3] = cited from earlier work
[4] = ethanol, DMSO, dimethyl formamide; stored at −20° C.; cited from earlier work
islets = experiment: [U-14C]-glutamine oxidation in islets; type: cell-based, rat
Method: In a first experiment, a batch of 100 islets were incubated with glucose-free Krebs-Ringer bicarbonate buffer, as described herein, containing 20 μM EGCG or 20 μM EGC and 2 mM glutamine for 60 minutes. The islets were then incubated in the presence of varying concentrations of BCH (shown in FIG. 7A) for 60 minutes, and for an additional 60 minutes in the presence of 2 mCi [U-^14C]-glutamine (NEN-Life Science Products, UK). Next, [U-^14C]-glutamine oxidation in the incubated islets was measured. A trap filter was placed in each tightly sealed glass tube of the perifusion apparatus to collect the ^14CO2 produced by the islets, and the amount of radioactivity was determined by liquid scintillation counting. The results are summarized in FIG. 7A, and are presented as means±S.E. from 4 separate experiments. […] The islets were then incubated in the presence of 10 mM BCH (or no BCH—to measure “baseline” glutamine oxidation levels) for 60 minutes. The islets were then incubated for an additional 60 minutes in the presence of 2 mCi [U-^14C]-glutamine (NEN-Life Science Products, UK). Next, [U-^14C]-glutamine oxidation in the incubated islets was measured, as described above.

rat islets [5] = experiment: insulin secretion and oxygen consumption during glucose stimulation; type: cell-based
Method: Next, insulin secretion and oxygen consumption were measured, as described herein, during glucose stimulation to confirm the above results. Isolated rat islets were isolated and cultured, as described above, with 10 mM glucose for 3 days and subsequently perifused in the oxygen consumption measurement apparatus described above. […] In general, FCCP is known to stimulate Mg^2+-ATPase activity, inhibit β-amyloid production, and mimic the effect of selective glutamate agonist N-methyl-D-aspartate (NMDA) on mitochondrial superoxide production. The results shown in FIG. 9 are presented as means±S.E. for 1000 islets from 3 separate experiments. Due to the high density of data, S.E. is only shown in every 20 samples.

[6] = 2-oxoglutarate varied, [EGCG] 0.3 μM
[7] = 2-oxoglutarate varied, [EGCG] 0.6 μM
[8] = ethanol, DMSO, dimethyl formamide

T1 sequence (P00366 58-558): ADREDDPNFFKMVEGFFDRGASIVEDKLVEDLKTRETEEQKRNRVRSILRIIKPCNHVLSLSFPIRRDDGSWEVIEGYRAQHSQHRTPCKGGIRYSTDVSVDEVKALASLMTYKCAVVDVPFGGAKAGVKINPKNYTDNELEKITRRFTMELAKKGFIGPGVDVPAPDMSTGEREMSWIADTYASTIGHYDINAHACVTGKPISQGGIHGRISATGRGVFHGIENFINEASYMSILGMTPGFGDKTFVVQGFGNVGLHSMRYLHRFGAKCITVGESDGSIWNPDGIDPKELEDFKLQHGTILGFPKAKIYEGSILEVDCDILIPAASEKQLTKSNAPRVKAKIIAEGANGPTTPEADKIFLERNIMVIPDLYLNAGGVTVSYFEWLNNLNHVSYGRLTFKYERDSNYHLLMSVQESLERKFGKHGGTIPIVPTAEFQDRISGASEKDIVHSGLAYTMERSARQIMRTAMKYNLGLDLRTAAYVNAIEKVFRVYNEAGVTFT
T2 sequence (P00366 58-558): as above

O=C(O[C@@H]1Cc2c(O)cc(O)cc2O[C@@H]1c1cc(O)c(O)c(O)c1)c1cc(O)c(O)c(O)c1 [EGCG, (2R,3R)-2-(3,4,5-Trihydroxyphenyl)-3,4-dihydro-1 (2H)-benzopyran-3,5,7-triol 3-(3,4,5-trihydroxybenzoate)]
Slope (Lineweaver-Burke) (GDH; [6]): 0.039 ± 0.002
Y-intercept (Lineweaver-Burke) (GDH; [6]): 0.24 ± 0.1
Slope (Lineweaver-Burke) (GDH; [7]): 0.15 ± 0.02
Y-intercept (Lineweaver-Burke) (GDH; [7]): 0.097 ± 0.5
Slope (Lineweaver-Burke) (GDH; NADH varied, [EGCG] 0.3 μM): 0.0026 ± 0.0002
Y-intercept (Lineweaver-Burke) (GDH; NADH varied, [EGCG] 0.3 μM): 0.15 ± 0.01
Slope (Lineweaver-Burke) (GDH; NADH varied, [EGCG] 0.6 μM): 0.0040 ± 0.0003
Y-intercept (Lineweaver-Burke) (GDH; NADH varied, [EGCG] 0.6 μM): 0.2000 ± 0.02
mode of inhibition (GDH; versus NADH and 2-oxoglutarate): non-competitive inhibition
effect on GSIS (rat islets [1]): neither EGC nor EGCG affected
potentiation of GSIS (rat islets [2]; 20 μM, 120 minute run-down, FIG. 11): potentiates
effect on KCl-stimulated release of insulin (rat islets [2]; 30 mM KCl): neither EGCG or EGC affected
potent inhibitor of GDH activity (Bovine GDH (bGDH); FIG. 1A): potent inhibitors
reversibility of inhibition (Bovine GDH (bGDH); dialysis of an EGCG/GDH mixture, data not shown): reversible
solubility in organic solvents [3, 8]: at least 20 mg/mL
soluble in organic solvents [3, 8]: soluble
solubility in phosphate buffered saline (PBS) ([3]; pH 7.2): at least 25 mg/mL
stability in organic solvents [4]: at least six months
block of BCH stimulation of glutaminolysis (glutamine oxidation) (islets; 20 μM, 2 mM glutamine, FIG. 7A): completely blocked
effect on basal levels of glutamine oxidation (islets; 3 mM glutamine, no BCH, FIG. 7D): does not have an effect
effect on 10 mM BCH-stimulated glutamine oxidation (islets; 3 mM glutamine, FIG. 7B, 7C): inhibits glutamine oxidation in a dose-dependent manner
concentration of maximal effects on glutamine oxidation (islets; 10 mM BCH, 3 mM glutamine, FIG. 7B): approximately 20 μM
effect on GSIS (rat islets [5]; FIG. 9A): does not affect
effect on respiration during glucose stimulation (rat islets [5]; FIG. 9B): does not affect
